Data: patent EP0037224A1, “Rare earth metal carboxylates, their use as antimicrobial agents, and medicinal, cosmetic and cleansing compositions containing them” (THE PROCTER & GAMBLE COMPANY, priority 1980, dated 1981)

Assays:
E. coli = test: Minimum Bactericidal Concentration test; type: cell-based; details: 10-minute contact with the test agent at 37°C; at least a 3 log unit reduction in viable cell count
S. aureus = test: Minimum Bactericidal Concentration test; type: cell-based; details: 10-minute contact with the test agent at 37°C; at least a 3 log unit reduction in viable cell count
Staphylococcus = details: cited from earlier work
molds = details: cited from earlier work

Row | Structure (SMILES) | Minimum Bactericidal Concentration E. coli (E. coli) | Minimum Bactericidal Concentration S. aureus (S. aureus) | concentration that inhibits Staphylococcus (Staphylococcus) | concentration that inhibits molds (molds)
1 | O.O.O.O.O.O.O.O.O=S(=O)([O-])[O-].O=S(=O)([O-])[O-].O=S(=O)([O-])[O-].[La+3].[La+3] [La2(SO4)3.8H2O] | >7100 ppm | >7100 ppm | – | –
2 | O.O.O.O.O.O.O=[N+]([O-])[O-].O=[N+]([O-])[O-].O=[N+]([O-])[O-].[La+3] [La(NO3)3.6H2O] | >4300 ppm | >4300 ppm | – | –
3 | O.O.O.O.O.O.[Cl-].[Cl-].[Cl-].[La+3] [LaCl3.6H2O] | >3500 ppm | >3500 ppm | – | –
4 | O=[N+]([O-])[O-].O=[N+]([O-])[O-].O=[N+]([O-])[O-].[Ce+3] [cerium nitrate] | – | – | 1000 ppm | 1000 ppm
